Measured values published in patent US20140349989A1, “COMPOUNDS AND THERAPEUTIC USES THEREOF” (Alzheimer's Institute of America, priority 2011, published 2014).
Like-named read-outs stand apart in the source and are kept apart here.

Columns and labels:
Human NAMPT = biological target: T1, Human NAMPT (Homo sapiens, UniProt P43490); assay: Nampt Activity Assay (coupled enzyme fluorometric, resazurin/diaphorase); format: biochemical; settings: His-tagged human NAMPT, 3 μM NAM, 8 μM PRPP, room temperature up to 3 hours; read-out: in vitro IC50 (Nampt catalytic activity)
T1 construct: 6xHis (N); made in house; host or cells: E. coli BL21-AI
T1 sequence (P43490 whole entry): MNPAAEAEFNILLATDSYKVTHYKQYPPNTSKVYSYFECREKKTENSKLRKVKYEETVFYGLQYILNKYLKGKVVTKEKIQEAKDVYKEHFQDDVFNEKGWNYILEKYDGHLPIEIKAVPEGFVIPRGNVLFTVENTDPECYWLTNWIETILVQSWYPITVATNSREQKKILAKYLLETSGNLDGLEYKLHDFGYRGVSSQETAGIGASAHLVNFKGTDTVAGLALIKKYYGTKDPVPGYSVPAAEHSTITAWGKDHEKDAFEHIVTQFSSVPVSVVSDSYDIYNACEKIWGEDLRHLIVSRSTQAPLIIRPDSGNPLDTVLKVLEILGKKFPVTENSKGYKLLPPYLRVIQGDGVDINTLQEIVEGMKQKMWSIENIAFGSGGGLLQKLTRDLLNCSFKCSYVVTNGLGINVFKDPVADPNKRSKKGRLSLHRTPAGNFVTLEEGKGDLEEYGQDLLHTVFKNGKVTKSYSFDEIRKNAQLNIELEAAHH
Description: 5-phosphoribosyl-1-pyrophosphate (PRPP), ATP, NaM, NaMN, Triton X-100, UDP-glucose and diaphorase were purchased from Sigma-Aldrich, St. Louis, Mo. Human NAMPT, NMN adenylyltransferase (NMNAT1) and UDP-glucose dehydrogenase (UGDH) encoding DNAs were each inserted into a house-modified E. Coli expression vector such that the expressed proteins carried an N-terminal 6×His tag. The His-tagged proteins were expressed in the BL21-AI E. Coli expression strain (Invitrogen Corporation, Carlsbad, Calif.) following induction by 0.2% L-arabinose and 0.5 mM IPTG at 30° C. Proteins were purified on Ni-NTA resin (Qiagen, Germantown, Md.).
The assay for Nampt catalytic activity was constructed based on a previously published coupled enzyme fluorometric technique, which employs NADH as ultimate analyte (Revollo, J. R. et al. Biol. Chem. 279, 50754-50763 (2004)). A substantial improvement in assay sensitivity was achieved by switching from direct detection to a resazurin/diaphorase-based fluorometric detection system for NADH (Guilbault, G. G., and Kramer, D. N. Anal. Chem. 37, 1219-1221 (1965)). The standard inhibition analyses were performed in a real-time mode in 96-well microtiter plates using 50 mM Tris-HCl, pH 7.5, 1% DMSO (v/v), 0.01% Triton X-100 (v/v), 10 mM MgCl2, 2 mM ATP, 3 μM NAM, 8 μM PRPP, […], as well as the following detection reagents: 5 nM Nmnat, 200 nM Ugdh, 200 μM UDP-glucose, 0.02 U/mL diaphorase and 0.25 μM resazurin. Incubation of samples at room temperature for up to 3 hours was followed by quantification of fluorescence intensities at excitation and emission wavelengths of 510 nm and 590 nm, respectively, using Gemini XS plate reader (Molecular Devices, Sunnyvale, Calif.). The counter-assay intended to disqualify false positives, such as inhibitors of detection enzymes or fluorescence quenchers, was carried out essentially as described above with an exception that 1 μM NaMN was substituted for Nampt.

[1] = Cytotoxicity Assay (HCT116, CellTiter-Glo); format: cell-based; settings: human
Procedure, shortened: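 Cells settled overnight, then exposed to compound in DMSO for 72 h, optionally with nicotinic acid (10 μM final) added alongside. Viability read as CellTiter-Glo luminescence.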

[2] = HCT116 cells, 72 hours drug incubation, CellTiter-Glo luminescence, read-out: HCT116 cell cytotoxicity IC50

IC50 (Human NAMPT) [nM]	Compound	IC50 at 72 h ([1]; HCT116 cell cytotoxicity IC50) [nM]	IC50 at 72 h [1, 2] [nM]
~2	O=C(NCc1cccnc1)Nc1ccc(-n2nc(C(=O)NCCN3CCCC3)c3ccccc32)cc1 [Compound 6, 1-(4-{[(Pyridin-3-ylmethyl)carbamoyl]amino}phenyl)-N-[2-(pyrrolidin-1-yl)ethyl]-1H-indazole-3-carboxamide]	~18	–
~1	O=C(NCc1cccnc1)Nc1ccc(-n2cc(CCN3CCCC3)c3ccccc32)cc1 [Compound 78, 1-(Pyridin-3-ylmethyl)-3-(4-{3-[2-(pyrrolidin-1-yl)ethyl]-1H-indol-1-yl}phenyl)urea]	~1	< 100
~1	O=C(NCc1cccnc1)Nc1ccc(-n2nc(N3CCN(C4CCCC4)CC3)c3ccccc32)cc1 [Compound 109, 1-{4-[3-(4-Cyclopentyl-piperazin-1-yl)-1H-indazol-1-yl]phenyl}-3-(pyridin-3-ylmethyl)urea]	~1	< 100
